In patent publication US3954793A, “1-(2-Propynyl)-1 H-indazole compounds” (priority 1973, dated 1976):

Key:
[1] = tested on: Wilson strain house flies; type: in vivo, Wilson strain (susceptible); conditions: for Contact Synergistic Ratio, Pyrolan: LC50 pyrolan alone / LC50 with synergist, synergist to insecticide 5:1 by weight; for Contact Synergistic Ratio, Carbaryl: in vivo
Procedure, shortened: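 Wilson strain house flies held at room temperature in glass jars coated with acetone-deposited insecticide film, alone or with synergist at 5:1 synergist:insecticide by weight.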

[2] = tested on: German male cockroaches (Blatella Germanicus); test: topical application to thorax, 24 hour mortality of German male cockroaches; type: in vivo; conditions: for percent insect mortality, synergist alone (mobam test doses): synergist doses of Table XXXX; for percent insect mortality, synergist alone (mobam test doses) / percent insect mortality, synergist alone (GS 13005 test doses): no insecticide; for percent insect mortality, synergist alone (GS 13005 test doses): synergist doses of Table XXXXI
Description: The synergistic effect with mobam of synergist compounds I-B, II-H, II-K and IV-C is further illustrated by the 24 hour mortality data of German male cockroaches (Blatella Germanicus) shown in Table XXXX. The synergists and insecticide were diluted in acetone and applied in small droplets to the thorax of the insect. These doses of synergist alone gave zero percent insect mortality.
The synergistic effect with GS 13005 of compounds I-B, II-H, II-K, II-P, II-Q, II-R and IV-C is illustrated by the 24 hour mortality of German male cockroaches shown in Table XXXXI. These doses of synergist alone caused zero percent insect mortality.

[3] = tested on: Swiss albino, white male mice; test: acute toxicity and synergism of acute toxicity in mice; type: in vivo; conditions: for number of mice dead, with Dimetilan: 48 hours
Procedure, shortened: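 Male Swiss albino mice (23 to 27 g, five to six weeks), eight per dose, dosed intraperitoneally in corn oil: dimetilan alone at 4 to 32 mg per kg, synergists alone at 1000 mg/kg with deaths counted at 72 hours. For synergism, synergist given 1 hour before insecticide, lethality observed for at least 6 hours.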

[4] = tested on: polyvalent resistant (CH strain) houseflies; test: whole plant or invertebrate; type: in vivo; conditions: CH strain; for percent kill after 24 hours, with GS 13005: GS 13005 1 + synergist 2 μg/fly; for mortality at 10 µg/fly: Musca domestica, topical, 24 h, read-out: percent kill after 24 hours, synergist alone; for mortality at 10 µg/fly / percent kill after 24 hours, synergist alone: insecticide 0, synergist 10 μg/fly
[5] = tested on: houseflies; test: topical application with Diazinon, Table XXVII (strain not given); type: in vivo; conditions: for mortality at 10 µg/fly: Musca domestica, topical, 24 h, Diazinon 0, synergist 10 μg/fly, read-out: percent kill after 24 hours, synergist alone (Table XXVII)
[6] = GS 13005 dose 0.08 + synergist 0.40, pretreated with synergist two hours before insecticide
[7] = GS 13005 dose 0.08 + synergist 4.0, cockroaches
[8] = Mobam dose 0.12 + synergist 0.60, pretreated with synergist two hours before insecticide
[9] = Mobam dose 0.16 + synergist 0.80, cockroaches
[10] = Dimetilan 8 + synergist 80 mg/kg i.p., eight mice
[11] = Dimetilan 8 + synergist 240 mg/kg i.p., eight mice

Structure (SMILES) | Contact Synergistic Ratio, Pyrolan [1] | Contact Synergistic Ratio, Carbaryl [1] | 24 hour mortality, with GS 13005 [2, 6] | 24 hour mortality, with GS 13005 [2, 7] | 24 hour mortality, with Mobam [2, 8] | 24 hour mortality, with Mobam [2, 9] | percent insect mortality, synergist alone (mobam test doses) [2] | percent insect mortality, synergist alone (GS 13005 test doses) [2] | number of mice dead, with Dimetilan [3, 10] | number of mice dead, with Dimetilan [3, 11] | percent kill after 24 hours, with GS 13005 [4] | mortality at 10 µg/fly [4] | percent kill after 24 hours, synergist alone [4] | mortality at 10 µg/fly [5] | further results
C#CCON=Cc1cccc([N+](=O)[O-])c1 [I-B] | 35 | 270 | 95% | 40% | 80% | 50% | zero | zero | 1 | 6 |  |  |  |  | 
C#CCON=C(C)c1ccc(Cl)cc1 [I-D] | 25 | 177 |  |  |  |  |  |  | 1 | 6 | 100% | 0% | 0% | 0% | percent kill after 24 hours, with Dimetilan ([4]; Dimetilan 2 + synergist 4 μg/fly): 100%; percent kill after 24 hours, with GS 13798 ([4]; GS 13798 1 + synergist 2 μg/fly): 100%; percent kill after 24 hours, with Diazinon (Table XXVII) ([5]; Diazinon 5 + synergist 10 μg/fly): 100%
C#CCON=Cc1ccc(Cl)cc1Cl [I-G] |  |  |  |  |  |  |  |  |  | 0 | 100% | 0% | 0% | 0% | percent kill after 24 hours, with pyrethrum ([4]; Pyrethrum 2 + synergist 4 μg/fly): 47%
C#CCON=Cc1cccc2ccccc12 [I-I] |  |  |  |  |  |  |  |  | 0 | 3 | 47% | 0% | 0% | 0% | 
C#CCOCc1c(Cl)cccc1Cl [II-H] | 40 | 300 | 100% |  | 90% |  | zero | zero | 0 | 6 |  |  |  |  | number of mice dead, with GS 13005 ([3]; GS 13005 71 + synergist 213 mg/kg): 7; number of mice dead, with Methadone ([3]; Methadone 32 + synergist 215 mg/kg): 4; number of mice dead, with Secobarbital ([3]; Secobarbital 90 + synergist 215 mg/kg): 0; number of mice dead, synergist alone ([3]; synergist 1000 mg/kg i.p., Dimetilan 0, 72 hours, eight mice): 0
C#CCOC(c1ccc(Cl)cc1)C(C)[N+](=O)[O-] (centres unmarked) [IV-C] |  |  | 90% | 30% | 60% | 40% | zero | zero | 5 | 7 |  |  |  |  | 
